Blank lines part the entries; values can stand above or below the compound they belong to.
Tests used:
Type in all cases: biochemical
[1] = biological target: T1, NUAK1 (Homo sapiens, UniProt O60285); assay: Counter-screen against NUAK1
T1 sequence (O60285 1-661): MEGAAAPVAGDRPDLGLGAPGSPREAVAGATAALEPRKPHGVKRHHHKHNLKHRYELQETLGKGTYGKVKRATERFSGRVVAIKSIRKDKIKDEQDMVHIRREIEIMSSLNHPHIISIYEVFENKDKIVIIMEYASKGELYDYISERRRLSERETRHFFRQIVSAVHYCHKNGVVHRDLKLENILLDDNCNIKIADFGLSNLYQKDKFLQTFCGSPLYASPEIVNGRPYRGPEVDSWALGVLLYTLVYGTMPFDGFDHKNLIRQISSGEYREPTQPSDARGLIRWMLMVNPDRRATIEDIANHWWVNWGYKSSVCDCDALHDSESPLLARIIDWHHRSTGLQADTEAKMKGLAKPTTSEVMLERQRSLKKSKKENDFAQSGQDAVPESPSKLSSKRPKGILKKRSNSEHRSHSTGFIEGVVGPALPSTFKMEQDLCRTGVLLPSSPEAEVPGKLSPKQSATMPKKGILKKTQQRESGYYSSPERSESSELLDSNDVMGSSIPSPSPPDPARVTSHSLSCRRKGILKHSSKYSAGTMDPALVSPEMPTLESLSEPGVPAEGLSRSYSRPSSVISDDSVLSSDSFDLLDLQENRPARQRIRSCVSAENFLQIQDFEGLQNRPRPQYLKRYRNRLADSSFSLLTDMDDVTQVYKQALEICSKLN
Description: (§1) To identify small molecule NUAK inhibitors, a biochemical NUAK2 enzymatic assay were outsourced to Eurofins. This assay was done radiometrically using full-length, recombinant enzyme. NUAK2 (h) was incubated with 8 mM MOPS pH 7.0, 0.2 mM EDTA, 300 μM […], 10 mM magnesium acetate and […] (specific activity and concentration as required). The reaction was initiated by the addition of the Mg/ATP mix. After incubation for 40 minutes at room temperature, the reaction was stopped by the addition of phosphoric acid to a concentration of 0.5%. 10 μL of the reaction was then spotted onto a P30 filtermat and washed four times for 4 minutes in 0.425% phosphoric acid and once in methanol prior to drying and scintillation counting. Compounds were routinely counter-screened against Aurora A and NUAK1. The results are shown in Table 1 where IC50's are reported in the following ranges: A: 0.1-10 nM; B: 11-100 nM; C: 101-1000 nM; D: >1000 nM for the compounds of Formula (I)

[2] = biological target: T2, NUAK2 (h) (Homo sapiens, UniProt Q9H093); assay: NUAK2 enzymatic assay (radiometric, Eurofins); settings: full-length recombinant enzyme
T2 construct: This assay was done radiometrically using full-length, recombinant enzyme; purchased Eurofins
T2 sequence (Q9H093 1-628): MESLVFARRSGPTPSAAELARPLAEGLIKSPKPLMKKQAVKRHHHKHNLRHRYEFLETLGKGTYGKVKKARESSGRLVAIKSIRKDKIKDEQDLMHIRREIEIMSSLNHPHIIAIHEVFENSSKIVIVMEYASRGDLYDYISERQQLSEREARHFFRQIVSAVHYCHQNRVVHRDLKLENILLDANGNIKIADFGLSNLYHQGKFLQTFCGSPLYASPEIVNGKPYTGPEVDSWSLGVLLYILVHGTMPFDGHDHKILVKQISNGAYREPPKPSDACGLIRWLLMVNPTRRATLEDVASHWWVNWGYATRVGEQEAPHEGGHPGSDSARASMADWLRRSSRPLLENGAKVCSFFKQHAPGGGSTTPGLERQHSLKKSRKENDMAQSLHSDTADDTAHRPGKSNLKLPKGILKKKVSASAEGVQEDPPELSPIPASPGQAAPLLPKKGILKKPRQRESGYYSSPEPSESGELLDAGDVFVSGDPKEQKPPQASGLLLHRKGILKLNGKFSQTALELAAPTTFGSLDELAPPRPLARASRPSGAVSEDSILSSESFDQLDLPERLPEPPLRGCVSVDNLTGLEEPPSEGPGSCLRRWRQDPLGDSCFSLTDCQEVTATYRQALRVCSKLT
Description: as §1

[3] = biological target: T3, Aurora A (Homo sapiens, UniProt O14965); assay: Counter-screen against Aurora A; settings: read-out: AUR-A (IC50)
T3 sequence (O14965 1-403): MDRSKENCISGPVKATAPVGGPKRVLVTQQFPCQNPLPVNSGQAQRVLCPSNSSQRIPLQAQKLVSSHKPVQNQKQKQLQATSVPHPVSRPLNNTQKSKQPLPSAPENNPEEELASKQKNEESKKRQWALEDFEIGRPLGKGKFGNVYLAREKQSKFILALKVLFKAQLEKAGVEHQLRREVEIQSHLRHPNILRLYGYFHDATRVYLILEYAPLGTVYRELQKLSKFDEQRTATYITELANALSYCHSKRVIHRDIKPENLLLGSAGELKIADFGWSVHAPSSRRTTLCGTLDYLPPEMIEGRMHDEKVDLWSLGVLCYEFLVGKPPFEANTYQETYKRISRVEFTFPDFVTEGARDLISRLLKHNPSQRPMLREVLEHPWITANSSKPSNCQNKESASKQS
Description: as §1

- IC50 [1]: 11 to 100 nM
- IC50 [2]: 0.1 to 10 nM
- IC50 [3]: > 1000 nM
SMILES: CN1C[C@@H]2CN(c3ccc(Nc4ncc(Cl)c(Nc5cccc6c5C(=O)NC6)n4)c(OC(F)F)c3)C[C@@H]2C1 [Compound I-28, 7-((5-chloro-2-((2-(difluoromethoxy)-4-((3aR,6aS)-5-methylhexahydropyrrolo[3,4-c]pyrrol-2(1H)-yl)phenyl)amino)pyrimidin-4-yl)amino)isoindolin-1-one]

- IC50 [1]: 11 to 100 nM
- IC50 [2]: 11 to 100 nM
- IC50 [3]: 101 to 1000 nM
SMILES: COc1c(Nc2ncc(Cl)c(Nc3cccc4c3C(=O)NC4)n2)ccc(N2C[C@H]3CN(C)C[C@H]3C2)c1F [Compound I-29, 7-((5-chloro-2-((3-fluoro-2-methoxy-4-((3aR,6aS)-5-methylhexahydropyrrolo[3,4-c]pyrrol-2(1H)-yl)phenyl)amino)pyrimidin-4-yl)amino)isoindolin-1-one]

- IC50 [1]: 0.1 to 10 nM
- IC50 [2]: 0.1 to 10 nM
- IC50 [3]: 101 to 1000 nM
SMILES: COc1cc2c(cc1Nc1ncc(C(F)(F)F)c(Nc3cccc4c3C(=O)NC4)n1)CNCC2 [Compound I-30, 7-((2-((6-methoxy-1,2,3,4-tetrahydroisoquinolin-7-yl)amino)-5-(trifluoromethyl)pyrimidin-4-yl)amino)isoindolin-1-one]

- IC50 [1]: 11 to 100 nM
- IC50 [2]: 0.1 to 10 nM
- IC50 [3]: 101 to 1000 nM
SMILES: CC(C)(C)N1CCN(C2CCN(c3ccc(Nc4ncc(C(F)(F)F)c(Nc5cccc6c5C(=O)NC6)n4)c(OC(F)F)c3)CC2)CC1 [Compound I-31, 7-((2-((4-(4-(4-(tert-butyl)piperazin-1-yl)piperidin-1-yl)-2-(difluoromethoxy)phenyl)amino)-5-(trifluoromethyl)pyrimidin-4-yl)amino)isoindolin-1-one]

- IC50 [1]: 11 to 100 nM
- IC50 [2]: 11 to 100 nM
- IC50 [3]: 101 to 1000 nM
SMILES: CC(C)N1CCN(C2CCN(c3ccc(Nc4ncc(C(F)(F)F)c(Nc5cccc6c5C(=O)NC6)n4)c(OC(F)F)c3)CC2)CC1 [Compound I-32, 7-((2-((2-(difluoromethoxy)-4-(4-(4-isopropylpiperazin-1-yl)piperidin-1-yl)phenyl)amino)-5-(trifluoromethyl)pyrimidin-4-yl)amino)isoindolin-1-one]

- IC50 [1]: 11 to 100 nM
- IC50 [2]: 11 to 100 nM
- IC50 [3]: 101 to 1000 nM
SMILES: COc1c(Nc2ncc(C(F)(F)F)c(Nc3cccc4c3C(=O)NC4)n2)ccc(N2C[C@H]3CN(C)C[C@H]3C2)c1F [Compound I-35, 7-((2-((3-fluoro-2-methoxy-4-((3aR,6aS)-5-methylhexahydropyrrolo[3,4-c]pyrrol-2(1H)-yl)phenyl)amino)-5-(trifluoromethyl)pyrimidin-4-yl)amino)isoindolin-1-one]

- IC50 [1]: 0.1 to 10 nM
- IC50 [2]: 11 to 100 nM
- IC50 [3]: 11 to 100 nM
SMILES: CN1CCN(c2ccc(Nc3ncc(C(F)(F)F)c(Nc4cccc5c4C(=O)NC5)n3)c(Cl)c2F)CC1 [Compound I-36, 7-((2-((2-chloro-3-fluoro-4-(4-methylpiperazin-1-yl)phenyl)amino)-5-(trifluoromethyl)pyrimidin-4-yl)amino)isoindolin-1-one]

- IC50 [1]: 11 to 100 nM
- IC50 [2]: 0.1 to 10 nM
- IC50 [3]: 11 to 100 nM
SMILES: COc1c(Nc2ncc(C(F)(F)F)c(Nc3cccc4c3C(=O)NC4)n2)ccc(N2CCC(N3CCCC3)CC2)c1F [Compound I-37, 7-((2-((3-fluoro-2-methoxy-4-(4-(pyrrolidin-1-yl)piperidin-1-yl)phenyl)amino)-5-(trifluoromethyl)pyrimidin-4-yl)amino)isoindolin-1-one]

More lines, now with the values behind:

SMILES: COc1cc2c(cc1Nc1ncc(Cl)c(Nc3cccc4c3C(=O)NC4)n1)CCN(C(C)C)C2 [Compound I-18, 7-((5-chloro-2-((2-isopropyl-7-methoxy-1,2,3,4-tetrahydroisoquinolin-6-yl)amino)pyrimidin-4-yl)amino)isoindolin-1-one]
- IC50 [1]: 11 to 100 nM
- IC50 [2]: 0.1 to 10 nM
- IC50 [3]: > 1000 nM

SMILES: COc1cc2c(cc1Nc1ncc(Cl)c(Nc3cccc4c3C(=O)NC4)n1)CCN(CCC(F)(F)F)C2 [Compound I-19, 7-((5-chloro-2-((7-methoxy-2-(3,3,3-trifluoropropyl)-1,2,3,4-tetrahydroisoquinolin-6-yl)amino)pyrimidin-4-yl)amino)isoindolin-1-one]
- IC50 [1]: 101 to 1000 nM
- IC50 [2]: 11 to 100 nM
- IC50 [3]: > 1000 nM

SMILES: CN1CCN(C2CCN(c3ccc(Nc4ncc(C(F)(F)F)c(Nc5cccc6c5C(=O)NC6)n4)c(OC(F)F)c3)CC2)CC1 [Compound I-20, 7-((2-((2-(difluoromethoxy)-4-(4-(4-methylpiperazin-1-yl)piperidin-1-yl)phenyl)amino)-5-(trifluoromethyl)pyrimidin-4-yl)amino)isoindolin-1-one]
- IC50 [1]: 11 to 100 nM
- IC50 [2]: 0.1 to 10 nM
- IC50 [3]: 101 to 1000 nM

SMILES: COc1cc2c(cc1Nc1ncc(C(F)(F)F)c(Nc3cccc4c3C(=O)NC4)n1)CN(C)CC2 [Compound I-21, 7-((2-((6-methoxy-2-methyl-1,2,3,4-tetrahydroisoquinolin-7-yl)amino)-5-(trifluoromethyl)pyrimidin-4-yl)amino)isoindolin-1-one]
- IC50 [1]: 11 to 100 nM
- IC50 [2]: 11 to 100 nM
- IC50 [3]: 101 to 1000 nM

SMILES: COc1cc2c(cc1Nc1ncc(C(F)(F)F)c(Nc3cccc4c3C(=O)NC4)n1)CCN(C)C2 [Compound I-22, 7-((2-((7-methoxy-2-methyl-1,2,3,4-tetrahydroisoquinolin-6-yl)amino)-5-(trifluoromethyl)pyrimidin-4-yl)amino)isoindolin-1-one]
- IC50 [1]: 11 to 100 nM
- IC50 [2]: 0.1 to 10 nM
- IC50 [3]: 101 to 1000 nM

SMILES: COc1cc2c(cc1Nc1ncc(Cl)c(Nc3cccc4c3C(=O)NC4)n1)CNCC2 [Compound I-23, 7-((5-chloro-2-((6-methoxy-1,2,3,4-tetrahydroisoquinolin-7-yl)amino)pyrimidin-4-yl)amino)isoindolin-1-one]
- IC50 [1]: 11 to 100 nM
- IC50 [2]: 11 to 100 nM
- IC50 [3]: 101 to 1000 nM

SMILES: O=C1NCc2cccc(Nc3nc(Nc4ccc(N5CCNCC5)cc4OC(F)F)ncc3Cl)c21 [Compound I-24, 7-((5-chloro-2-((2-(difluoromethoxy)-4-(piperazin-1-yl)phenyl)amino)pyrimidin-4-yl)amino)isoindolin-1-one]
- IC50 [1]: 11 to 100 nM
- IC50 [2]: 0.1 to 10 nM
- IC50 [3]: > 1000 nM

SMILES: COc1cc2c(cc1Nc1ncc(Cl)c(Nc3cccc4c3C(=O)NC4)n1)CNCC21CC1 [Compound I-25, 7-((5-chloro-2-((6′-methoxy-2′,3′-dihydro-1′H-spiro[cyclopropane-1,4′-isoquinolin]-7′-yl)amino)pyrimidin-4-yl)amino)isoindolin-1-one]
- IC50 [1]: 11 to 100 nM
- IC50 [2]: 11 to 100 nM
- IC50 [3]: > 1000 nM

SMILES: COc1cc2c(cc1Nc1ncc(Cl)c(Nc3cccc4c3C(=O)NC4)n1)CCNCC2 [Compound I-26, 7-((5-chloro-2-((8-methoxy-2,3,4,5-tetrahydro-1H-benzo[d]azepin-7-yl)amino)pyrimidin-4-yl)amino)isoindolin-1-one]
- IC50 [1]: 11 to 100 nM
- IC50 [2]: 11 to 100 nM
- IC50 [3]: > 1000 nM

— patent US12643886B2 (Ontario Institute for Cancer Research (OICR), priority 2021, dated 2026)
